Experimental findings from the SangsterLogP compilation are described below.

Each structure is given as a SMILES string.

The nature of the data set: method code SF-HPLC, from DOI: 10.1021/jm00151a006, PMID: 3510299.
As a reminder, the logP is a log measure of how a compound divides between an organic and an aqueous phase. Low values mean a more hydrophilic compound, high ones a more lipophilic compound. On to `CN(Cc1ccc(Cl)cc1)N=O`, for which the log partition coefficient (logP) amounted to 2.19. For `CN(Cc1cccc(Cl)c1)N=O` the value was 1.46; for `COc1ccc(CN(C)N=O)cc1`, 1.62. For `CN(Cc1cccc([N+](=O)[O-])c1)N=O` the value was 1.17; for `CN(Cc1cccc(C(F)(F)F)c1)N=O`, 1.99.

Consider `COc1cccc(CN(C)N=O)c1`, for which the logP was 1.6. For `CN(Cc1ccc([N+](=O)[O-])cc1)N=O` the value was 0.82; for `CN(Cc1ccc(F)cc1)N=O`, 1.67. For `CN(Cc1ccccc1)N=O` the value was 1.55; for `Cc1ccc(CN(C)N=O)cc1`, 2.14. Turning to `CN(Cc1ccc(C#N)cc1)N=O`, the logP was 0.99. With `Cc1cccc(CN(C)N=O)c1` the figure was 1.96.
